In brackets after ≈: the same amount, converted by molar mass. Read-outs that look alike come from different tables or passages of the source.
What was measured:
[1] = Solubility in 40% w/w cyclodextrin solutions versus potassium phosphate buffer; type: physicochemical; conditions: thermodynamic from solid, room temperature (20-25° C.)
Method: (§1) Aqueous solutions of cyclodextrin at pH 6.7-7.2 were prepared by dissolving 4 parts of cyclodextrins (hydroxypropyl α-cyclodextrin (HPACD), hydroxypropyl β-cyclodextrin (HPBCD), β-cyclodextrin (BCD), hydroxypropyl γ-cyclodextrin (HPGCD), or CAPTISOL) in 6 parts of potassium phosphate buffer (50 mM KH2PO4, pH 7.0), resulting solutions of 40% w/w cyclodextrins.
as §1, with “(HPBCD),” for “(HPBCD), β-cyclodextrin (BCD),”

[2] = cited from earlier work
[3] = UV spectroscopy of decitabine-HPBCD complex formation; type: physicochemical; conditions: absorbance at 262 nm, room temperature, 1:1 stoichiometry assumed, least-squares fit
[4] = Chemical stability of decitabine in cyclodextrin solutions (HPLC potency); type: physicochemical; conditions: 2-8° C. and 25° C., percentage of total peak areas at 220 nm, FIGS. 1 and 2
Method: The chemical stability of decitabine in the cyclodextrin solutions and in the phophate buffer as prepared above was determined. The initial decitabine concentration for all the solutions was 17-18 mg/mL at the beginning of the experiment at 2-8° C.; 9-10 mg/mL at the beginning of the experiment at 25° C. Decitabine potency was assayed by a HPLC method, and expressed as a percentage of total peak areas at 220 nm.

[5] = 40% w/w Captisol aqueous solution, aqueous with cosolvent or surfactant or cyclodextrin, 40% Captisol (w/w, pH 6.7)
[6] = 40% w/w HPACD aqueous solution, aqueous with cosolvent or surfactant or cyclodextrin, 40% HPACD (w/w, pH 7.0)
[7] = 40% w/w HPBCD aqueous solution, aqueous with cosolvent or surfactant or cyclodextrin, 40% HPBCD (w/w, pH 7.2)
[8] = potassium phosphate buffer, aqueous buffer, KPi (50 mM KH2PO4, pH 7.0)

Row | SMILES | solubility [1, 5] [mg/mL] | solubility [1, 6] [mg/mL] | solubility [1, 7] [mg/mL] | solubility ([1]; 40% w/w HPGCD aqueous solution, aqueous with cosolvent or surfactant or cyclodextrin, 40% HPGCD (w/w, pH 7.0)) [mg/mL] | solubility [1, 8] [mg/mL] | Steady-state plasma concentration (estimated) ([2]; 6-hour infusion of 100 mg/m^2) [µg/mL] | Range of plasma concentrations ([2]; 600-mg/m^2 infusion) [µg/mL] | Terminal half-life ([2]; humans, measured by bioassay) [min] | Half-life after discontinuing the infusion ([2]; humans) [min] | Total urinary excretion, % of the administered dose ([2]; humans) | Volume of distribution ([2]; humans) | Steady-state plasma concentration (estimated) ([2]; infusion rate of 1 mg/kg/h) [µg/mL] | Plasma concentration ([2]; infusion times of 40-60 hours, infusion rate 1 mg/kg/h) [ng/mL] | Penetration into the cerebrospinal fluid, % of the plasma concentration ([2]; man, end of a 36-hour intravenous infusion) | Plasma concentration ([2]; patients, 100 mg/m^2 as a 3-hour infusion) | Complex formation constant Kf for decitabine-HPBCD complex [3] [M⁻¹] | Stability of decitabine in aqueous solution with cyclodextrins as excipients [4]
1 | Nc1ncn([C@@H]2O[C@H](CO)[C@@H](O)[C@H]2O)c(=O)n1 [5-azacytidine] | 26 (≈ 106 mM) | 20 (≈ 81.9 mM) | 26 (≈ 106 mM) | 22 (≈ 90.1 mM) | 19 (≈ 77.8 mM) | – | – | – | – | – | – | – | – | – | – | – | –
2 | Nc1ncn([C@H]2C[C@H](O)[C@@H](CO)O2)c(=O)n1 [decitabine, 5-aza-2′-deoxycytidine] | 42 (≈ 184 mM) | 18 (≈ 78.9 mM) | 44 (≈ 193 mM) | – | 18 (≈ 78.9 mM) | 0.31 to 0.39 | 0.41 to 16 | 10 to 35 | 12 to 20 | less than 1% | about 4.6 L/kg | 0.2 to 0.5 | 430 to 760 | 14-21% | about 0.4 μg/ml | 23 | dramatically improve the stability
